The source of these data is the OPERA property sets (Mansouri et al. 2018).

As a reminder, the melting point is the temperature, or range, at which the solid turns liquid. By boiling point is commonly meant the temperature of boiling at a given pressure.

Molecules are shown by their SMILES.

Details in one data set: not given
With `CC(C)COC(=O)c1ccc(N)cc1`, the melting point was 64.5 °C.
On to `CCCC(=O)Nc1c(I)cc(I)c(CC(CC)C(=O)[O-])c1I.[Na+]` (stereo not given), for which the melting point came out at 209 °C.
With `CC1(C)C2CC3OC3(C)C1C2` (stereo not given), the boiling point was 185 °C and the log10 vapour pressure (mmHg) was -0.0872.
In the case of `CCCCCCCC#N`, the boiling point was found to be 205 °C, the log10 vapour pressure (mmHg) was -0.409 and the melting point is -45.6 °C.
As to `O=P(OC(CCl)CCl)(OC(CCl)CCl)OC(CCl)CCl`, the melting point came to 27 °C and the ready biodegradability entry is given as “not readily biodegradable”.
Regarding `O=C1C=CCO1`, the melting point was 4.5 °C.
`CCCCCCCCCCCCCC[N+](C)(C)C.[Br-]` showed a melting point of 248 °C.
With `O=C1C=CC(=O)C=C1`, the log10 vapour pressure (mmHg) was -1.05 and the melting point turned out to be 116 °C.
Regarding `CCCCCSCCCCC`, the melting point is -51.3 °C.
As for `FC(Cl)C(F)Cl` (stereo not given), the boiling point stood at 46.8 °C.
With `CCOC(=O)C(SP(=S)(OC)OC)c1ccccc1` (stereo not given), the log10 Koc (L/kg) stood at 3, the log10 vapour pressure (mmHg) was -5.58, the melting point was 17.5 °C and the ready biodegradability entry is “not readily biodegradable”.
Turning to `O=C1CCCCCCCN1`, the melting point was 78 °C.
As to `c1ccc(-c2ccncn2)cc1`, the melting point amounted to 56 °C.
Take `C=COCC`: the boiling point stood at 35.5 °C, the log10 vapour pressure (mmHg) amounted to 2.71 and the melting point was -116 °C.
Regarding `COC(=O)c1ccco1`, the boiling point came out at 181 °C.
With `CNC(=O)Oc1cccc(N=CN(C)C)c1.Cl`, the log10 vapour pressure (mmHg) is -7.92.
As for `CCOC(=O)C(Br)C(=O)OCC`, the melting point was -54 °C.
On to `FC(F)Cl`, for which the boiling point was -40.7 °C, the log10 Henry constant (atm·m³/mol) is -1.39, the log10 vapour pressure (mmHg) was determined as 3.86 and the melting point is -157 °C. For the same compound, the ready biodegradability entry is recorded as “not readily biodegradable”.
The compound `Sc1cccc(Cl)c1` displayed a boiling point of 206 °C.
Regarding `CCC(O)C(=O)O` (stereo not given), the melting point was found to be 44.2 °C.
For the compound `C=C(CC(=O)O)C(=O)O`, the melting point is 175 °C and the ready biodegradability result is reported as “readily biodegradable”.
The compound `CC(=O)c1ccsc1` returned a boiling point of 210 °C and a melting point of 60 °C.
For `C=C(C)Cl`, the boiling point amounted to 22.6 °C, the log10 vapour pressure (mmHg) amounted to 2.91 and the melting point is -137 °C.
The compound `CC/C(=C(\c1ccccc1)c1ccc(OCCN(C)C)cc1)c1ccccc1` showed a melting point of 97 °C.
Regarding `OCCCCCCCO`, the boiling point is 262 °C and the melting point stood at 22.5 °C.
Turning to `CCCN(C(C)=O)c1ccccc1`, the boiling point is 268 °C and the melting point was 49 °C.
As to `Cc1cccc(C(C)C)c1`, the boiling point was 175 °C, the log10 vapour pressure (mmHg) worked out at 0.235, the melting point is -63.7 °C and the ready biodegradability result was “not readily biodegradable”.
The compound `CCc1sccc1C` registered a boiling point of 161 °C.
On to `CCC(O)CC`, for which the boiling point was 116 °C and the log10 vapour pressure (mmHg) was determined as 0.943.
As for `O=C(O)CCCCCC(=O)O`, the boiling point amounted to 342 °C, the log10 vapour pressure (mmHg) is -7.05 and the melting point was 106 °C.
For `CN(C)C(N)=O`, the melting point came to 184 °C.
Take `COc1cc(C=O)ccc1O`: the boiling point stood at 285 °C, the log10 vapour pressure (mmHg) was -3.93, the melting point amounted to 81.5 °C and the ready biodegradability result was “readily biodegradable”.
On to `Fc1ccccc1`, for which the boiling point turned out to be 84.7 °C, the log10 Henry constant (atm·m³/mol) is -2.2, the log10 vapour pressure (mmHg) was 1.89 and the melting point is -42.2 °C.
Regarding `CCOC(=O)C(C)(C)Oc1ccc(Cl)cc1`, the ready biodegradability result is on record as “readily biodegradable”.
Take `c1ccc2c(c1)CCCO2`: the melting point amounted to 215 °C.
Compound `O=C(O)c1cc(O)ccc1O` returned a melting point of 200 °C.
On to `C=C(Cl)C(=O)O`, for which the melting point stood at 66 °C.
Take `c1ccc(Cn2ccnc2)cc1`: the boiling point worked out at 310 °C and the melting point amounted to 69 °C.
As to `O=C(O)c1cc(Cl)ccc1O`, the melting point is 172 °C.
For the compound `CC(C)(C)OC=O`, the boiling point was determined as 82.5 °C and the log10 Henry constant (atm·m³/mol) is -3.16.
With `Cc1cc(O)ccc1[N+](=O)[O-]`, the log10 Henry constant (atm·m³/mol) is -7.79, the melting point stood at 128 °C and the ready biodegradability entry is listed as “not readily biodegradable”.
For the compound `CC(C)CC(C)CC(O)CC(C)C` (stereo not given), the boiling point came out at 225 °C.
Regarding `FC(F)(F)C(F)(F)C(F)(F)I`, the boiling point was found to be 41.2 °C and the melting point was -95 °C.
As to `Cc1ccccc1C(C)C`, the boiling point worked out at 178 °C, the log10 vapour pressure (mmHg) stood at 0.176, the melting point is -71.5 °C and the ready biodegradability entry was “not readily biodegradable”.
For the compound `CCC(C)c1ccc(O)cc1` (stereo not given), the boiling point was determined as 241 °C, the log10 vapour pressure (mmHg) was -1.43, the melting point was determined as 61.5 °C and the ready biodegradability entry was “not readily biodegradable”.

The same data set, now with this note: fish.
`N#Cc1ccc(O)cc1` returned a log10 BCF of 0.91.
Turning to `O=[N+]([O-])c1cc(Cl)c(Cl)c(Cl)c1Cl`, the log10 BCF was determined as 1.9 and the log10 biotransformation half-life (days) was -0.69.
As to `Nc1cccnc1`, the log10 BCF came to 0.32.
`CC1CCCCC1` yielded a log10 BCF of 2.27 and a log10 biotransformation half-life (days) of 0.57.
The matching figures for `CCC(C)n1c(=O)[nH]c(C)c(Br)c1=O` (stereo not given): 0.51 and -1.33.
Regarding `O=P(OC(CCl)CCl)(OC(CCl)CCl)OC(CCl)CCl`, the log10 BCF is 1.08 and the log10 biotransformation half-life (days) is -0.52.
As for `CCOC(=O)C(SP(=S)(OC)OC)c1ccccc1` (stereo not given), the log10 BCF is 1.69 and the log10 biotransformation half-life (days) was -0.75.
The compound `Cc1cccc(C(C)C)c1` showed a log10 BCF of 2.73 and a log10 biotransformation half-life (days) of 0.07.
Turning to `Cc1cc(O)ccc1[N+](=O)[O-]`, the log10 BCF was found to be 1.06.
For `CCC(C)c1ccc(O)cc1` (stereo not given), the log10 BCF turned out to be 1.31 and the log10 biotransformation half-life (days) was -0.84.
